Test results from patent publication US20090062130A1, “NUCLEOSOME-BASED BIOSENSOR” (UNIVERSITY OF PITTSBURGH - OF THE COMMONWEALTH SYSTEM OF …, priority 2006, published 2009).

Tests used:
ER [1] = settings: ligand plus estrogen receptor plus Brg1 complex
Method: To reconstitute specific chromatin remodeling in vitro, one would co-incubate wild type or mutant ERE-containing nucleosomes with E2/ER or ICI/ER as in D2.2a. Equimolar Brg1, obtainable from Jena Biosciences (Dortmund, Germany), would be added and measurement would be made of the FRET loss that is specific to wt ERE-containing nucleosomes in a buffer of 12 mM HEPES, pH 7.9, 60 mM KCl, 15% glycerol, catalase, 10 mM DTT, 2 mM MgCl2, 4 mM ATP, 0.4% (w/v) glucose, 0.1 mg/ml glucose oxidase, and 0.02 mg/ml catalase. In the absence of measurable FRET loss, Flag-tagged BAF57, BAF155 and BAF170 could 1 be added in a 2:1 ratio, relative to Brg1, in keeping with observations in publication 69. Ligand-dependent measurement of FRET loss would be monitored.
The remodeling reaction is expected to be ATP-dependent. This would be tested by ATP deletion in relation to incubation conditions that had decreased FRET. Also, initial validation of reagents would be effected done through measurement of micrococcal nuclease sensitivity of the mononucleosome bound DNA.

ER [2] = settings: recombinant protein system, equimolar estrogen, ICI, tamoxifen, cholesterol
Excerpt: Use of a recombinant protein system would be preferred to use of cell extracts in this context. A recombinant protein system would facilitate modulation of component stoichiometries.

Sequence of ER (P03372 whole entry): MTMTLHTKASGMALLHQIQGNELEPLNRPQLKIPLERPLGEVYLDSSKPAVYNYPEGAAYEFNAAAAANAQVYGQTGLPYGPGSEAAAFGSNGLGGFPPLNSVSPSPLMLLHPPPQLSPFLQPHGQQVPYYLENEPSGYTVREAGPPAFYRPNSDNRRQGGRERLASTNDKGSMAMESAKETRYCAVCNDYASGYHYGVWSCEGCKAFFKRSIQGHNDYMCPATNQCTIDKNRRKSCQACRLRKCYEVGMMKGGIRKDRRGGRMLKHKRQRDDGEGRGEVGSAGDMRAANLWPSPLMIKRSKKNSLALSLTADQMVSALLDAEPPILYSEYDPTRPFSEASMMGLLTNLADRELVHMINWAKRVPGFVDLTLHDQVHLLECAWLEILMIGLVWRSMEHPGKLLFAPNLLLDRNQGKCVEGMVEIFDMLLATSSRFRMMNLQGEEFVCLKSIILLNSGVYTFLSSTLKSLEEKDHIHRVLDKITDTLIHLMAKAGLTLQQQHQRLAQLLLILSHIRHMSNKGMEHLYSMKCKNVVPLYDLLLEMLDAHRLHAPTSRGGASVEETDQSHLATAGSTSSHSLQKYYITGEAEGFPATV

Compound | loss of FRET signal (ER [1]) | distribution of ligand into sorted pools (ER [2])
Vitamin D3 | negative controls | 
CC(C)CCC[C@@H](C)[C@H]1CC[C@H]2[C@@H]3CC=C4C[C@@H](O)CC[C@]4(C)[C@H]3CC[C@]12C [cholesterol] | negative controls | would not be carried forward through the sort
C[C@]12CC[C@@H]3c4ccc(O)cc4C[C@@H](CCCCCCCCC[S+]([O-])CCCC(F)(F)C(F)(F)F)[C@H]3[C@@H]1CC[C@@H]2O (stereo partly shown) [ICI, ICI182780] | negative controls | 
